Data published in patent US12594319B2, “Pharmaceutical development” (HELPERBY THERAPEUTICS LIMITED, priority 2019, dated 2026).
Several values for one entry are separate records, joined by “and”; a condition that tells them apart may be missing. Identical values can stand only once.

Experiments:
[1] = RP-HPLC for related substances of zidovudine (Ph. Eur. 9.5) after lyophilisation; assay type: physicochemical; details: aqueous lyo solution
Description: RP-HPLC chromatography for quantity and purity of zidovudine was performed according to monograph Ph. Eur. 9.5 (January 2017:1059). The following chromatographic conditions were used for the analysis.
• XTerra RP18 VanGuard cartridge, 3.9×5 mm, 5 μm Mobile phase A 2 g/L ammonium acetate, pH 6.8 Mobile phase B Acetonitrile
Mobile phase A was prepared by dissolving 2 g ammonium acetate in 800 mL of purified water, pH was adjusted to 6.8 with acetic acid. The solution was made up to 1 L with purified water.
Diluent was prepared by mixing 76 mL mobile phase A with 4 mL of ACN and 20 mL methanol.
Reference solution A: 2 mg of impurity C and 2 mg of impurity B were dissolved in 50 mL diluent. 1 mL of this solution was diluted with 19 mL diluent.

[2] = Solubility screening in organic solvent system (tert-butanol/water)
Description: Substances were dissolved in an appropriate volume to justify the use of an organic solvent based system (reduction of the fill volume per vial by a factor of 4, ˜5 mL fill volume in organic solvent based systems). Samples were tested for stability of the APIs in solution when stored for 24 h at 2 to 8° C. and 25° C. […] The chromatographic conditions were the same as set out above for Example 1A.

[3] = buffered aqueous system
Description: A two component buffer system consisting of acetate and phosphate (5 mM acetate and 5 mM phosphate) was used to cover a pH range of about 4.5 to 7.5. After complete dissolution of the solid, the pH was adjusted to the desired pH value using hydrochloric acid.

[4] = test system: sensitive micro-organisms; details: cited from earlier work; for Potency: general value of the art
[5] = Determination of free colistin (turbidity) according to European Pharmacopeia 9.5; assay type: physicochemical; details: free colistin assay
Description: Determination of free colistin was performed according to European Pharmacopeia 9.5 (July 2017:0319).
1.0 g of hydrazine sulfate was dissolved in purified water, diluted to 100.0 mL with the same solvent and allowed to stand for 4-6 h.
2.5 g of hexamethylene tetramine was dissolved in 25.0 mL purified water in a 100 mL glass-stoppered volumetric flask.
25.0 mL hydrazine sulfate solution was added to the hexamethylene tetramine solution in the volumetric flask, mixed and allowed to stand for 24 h.
15.0 mL of the primary opalescent suspension was diluted to 1000.0 mL with purified water. This suspension was freshly prepared and stored for a maximum of 24 h.
Reference suspensions according to Table 6 were prepared for calibration of the turbidity meter.
One lyophilisate containing 240 mg CMS was dissolved in 10 mL purified water. CMS BDS was analyzed by dissolving 80 mg of CMS BDS in 3 mL purified water. After complete dissolution, 0.1 mL […] silicotungstic acid was added to 3 mL of the test sample (either reconstituted lyophilisate or dissolved BDS). The turbidity of the sample was recorded after 10 s-20 s.
Determination of free colistin was performed according to European Pharmacopeia 9.5 (July 2017:0319). The hydrazine sulfate solution, hexamethylene tetramine solution, primary opalescent suspension, standard of opalescence, and reference suspensions were prepared as in Example 2. […]

[6] = aqueous solutions; Wallace et al. 2010; cited from earlier work

Cc1cn([C@H]2C[C@H](N=[N+]=[N-])[C@@H](CO)O2)c(=O)[nH]c1=O [Zidovudine]
Stability of zidovudine during the lyophilisation process [1]: stable during the lyophilisation process

colistimethate sodium [CMS]
Solubility in TBA/water, all TBA concentrations [2]: soluble in all TBA concentrations
Dissolution time in TBA/water ([2]; 20% to 60% (w/w) TBA, 5 mL): within a few minutes
Effect on pH of the solution / buffer capacity [3]: strong buffer capacity at neutral to slightly basic pH values
Potency [4]: around 12,500 IU/mg
Acceptance criteria/not more turbid than standard of opalescence II ([5]; Table 8 (Example 2)): yes
Turbidity ([5]; Table 8, organic solvent system lyophilisation (Example 2)): 5.5 NTU
Concentration in aqueous solution above which CMS is stable against hydrolysis due to the formation of micelles [6]: above 3.5 mM and ~5.7 mg/mL

colistin sulfate
Potency [4]: around 20,500 IU/mg

polymyxin B
International Units equivalent to 1 mg ([4]; generally accepted in the art): approximately 10,000 IU
